Where two headings read alike, the source gives them in different places.
Molecular target: BTK (Homo sapiens (Human), UniProt Q06187)
Assay: In vitro BTK kinase assay: BTK-POLYGAT-LS ASSAY
[1] = read-out: IC50 (10 uM ATP), 10 uM ATP, in vitro Btk kinase assay, Example 41

BTK, sequence (Q06187 whole entry): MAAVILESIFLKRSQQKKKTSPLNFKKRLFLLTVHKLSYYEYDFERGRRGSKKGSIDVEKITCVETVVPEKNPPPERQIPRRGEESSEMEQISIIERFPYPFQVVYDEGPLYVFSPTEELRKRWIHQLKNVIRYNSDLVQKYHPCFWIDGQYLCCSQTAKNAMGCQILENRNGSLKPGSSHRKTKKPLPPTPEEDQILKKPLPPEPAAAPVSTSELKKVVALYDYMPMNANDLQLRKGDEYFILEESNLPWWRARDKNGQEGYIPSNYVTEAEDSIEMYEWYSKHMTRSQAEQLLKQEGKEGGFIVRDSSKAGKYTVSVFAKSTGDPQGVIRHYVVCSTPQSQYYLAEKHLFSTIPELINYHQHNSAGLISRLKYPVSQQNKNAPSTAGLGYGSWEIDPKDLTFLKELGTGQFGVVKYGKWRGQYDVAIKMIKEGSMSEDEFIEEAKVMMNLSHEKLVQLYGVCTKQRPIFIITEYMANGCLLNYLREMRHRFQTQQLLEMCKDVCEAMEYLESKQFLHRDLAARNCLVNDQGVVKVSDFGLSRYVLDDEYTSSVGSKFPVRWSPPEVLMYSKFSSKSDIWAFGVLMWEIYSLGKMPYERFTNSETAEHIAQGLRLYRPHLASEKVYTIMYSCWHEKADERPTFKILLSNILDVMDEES

| SMILES | IC50 [1] | IC50 |
| --- | --- | --- |
| N#Cc1c(N)ncnc1N1CCCC(c2nc(NC(=O)Nc3ccccc3N3CCCC3)cs2)C1 (stereo not shown) [compound 109, 1-(2-(1-(6-amino-5-cyanopyrimidin-4-yl)piperidin-3-yl)thiazol-4-yl)-3-(2-(pyrrolidin-1-yl)phenyl)urea] | < 100 nM |  |
| Nc1ncnc(N2CC[C@H](C(F)(F)F)[C@@H](N3CC[C@@H](Nc4cc(Cl)cc(Cl)c4)C3=O)C2)c1F [compound 353] | < 100 nM |  |
| Cn1ccc2c(N3CCCC(c4cccc(NC(=O)Nc5ccccc5)c4)C3)ncnc21 (stereo not shown) [Cmpd 93, 1-(3-(1-(7-methyl-7H-pyrrolo[2,3-d]pyrimidin-4-yl)piperidin-3-yl)phenyl)-3-phenylurea] | > 10000 nM |  |
| CC(=O)N1CCCC(CNC(=O)Nc2cccc(C3CCCN(c4ncnc5[nH]ccc45)C3)c2)C1 (stereo not shown) [compound 240] | > 10000 nM |  |
| O=C(Nc1cccnc1)Nc1cccc(C2CCCN(c3ncnc4[nH]ccc34)C2)c1 (stereo not shown) [Cmpd 30, 1-(3-(1-(7H-pyrrolo[2,3-d]pyrimidin-4-yl)piperidin-3-yl)phenyl)-3-(pyridin-3-yl)urea] |  | 1000 to 10000 nM |
| CC(C)(C)CNC1CCCN([C@@H]2CCCN(c3ncnc(N)c3F)C2)C1=O (stereo partly drawn) [compound 292, (3′R)-1′-(6-Amino-5-fluoropyrimidin-4-yl)-3-(neopentylamino)-1,3′-bipiperidin-2-one] | > 10000 nM |  |
| O=C(Nc1cccc(C2CCCN(c3ncnc4[nH]ccc34)C2)c1)NC1CCCNC1 (stereo not shown) [compound 232] | > 10000 nM |  |
| Nc1ncnc(N2CC[C@@H](C(F)(F)F)[C@H](N3CCC[C@H](Nc4cc(Cl)cc(Cl)c4)C3=O)C2)c1F [compound 336, trans (3S)-1′-(6-Amino-5-fluoropyrimidin-4-yl)-3-(3,5-dichlorophenylamino)-4′-(trifluoromethyl)-1,3′-bipiperidin-2-one] |  | 1000 to 10000 nM |
| O=C(NCCC1CCCCC1)Nc1cccc(C2CCCN(c3ncnc4[nH]ccc34)C2)c1 (stereo not shown) [compound 259] | > 10000 nM |  |
| O=C(Nc1cccc(C2CCCN(c3ncnc4[nH]ccc34)C2)c1)Nc1c(F)cccc1N1CCCC1=O (stereo not shown) [Cmpd 51, 1-(3-(1-(7H-pyrrolo[2,3-d]pyrimidin-4-yl)piperidin-3-yl)phenyl)-3-(2-fluoro-6-(2-oxopyrrolidin-1-yl)phenyl)urea] |  | 1000 to 10000 nM |
| C[C@@H](NC(=O)Nc1cccc(C2CCCN(c3ncnc4[nH]ccc34)C2)c1)c1ccccc1 (stereo partly drawn) [Cmpd 43, 1-(3-(1-(7H-pyrrolo[2,3-d]pyrimidin-4-yl)piperidin-3-yl)phenyl)-3-((R)-1-phenylethyl)urea] |  | 1000 to 10000 nM |
| O=C(Nc1cccc(C2CCCN(c3ncnc4[nH]ccc34)C2)c1)Nc1ccccc1N1CCC(F)(F)C1 (stereo not shown) [compound 168] |  | 100 to 999 nM |
| C[C@H](NC(=O)Nc1cccc(C2CCCN(c3ncnc4[nH]ccc34)C2)c1)c1ccccc1 (stereo partly shown) [compound 248] | > 10000 nM |  |
| O=C(Nc1cc(C2CCCN(c3ncnc4[nH]ccc34)C2)ccc1OC(F)(F)F)c1c(F)cccc1Cl (stereo not shown) [Cmpd 90, N-(5-(1-(7H-pyrrolo[2,3-d]pyrimidin-4-yl)piperidin-3-yl)-2-(trifluoromethoxy)phenyl)-2-chloro-6-fluorobenzamide] |  | 100 to 999 nM |
| Nc1ncnc(N2CCOCC(N3CCCC(Nc4cc(Cl)cc(Cl)c4)C3=O)C2)c1F (stereo not shown) [compound 344] | < 100 nM |  |
| Cc1noc(C)c1NC(=O)Nc1cccc(C2CCCN(c3ncnc4[nH]ccc34)C2)c1 (stereo not shown) [compound 254] | > 10000 nM |  |
| Cc1ccc(NC(=O)c2ccccc2)cc1C1CCCN(c2ncnc3[nH]ccc23)C1 (stereo not shown) [Cmpd 80, N-(3-(1-(7H-pyrrolo[2,3-d]pyrimidin-4-yl)piperidin-3-yl)-4-methylphenyl)benzamide] | > 10000 nM |  |
| Nc1ncnc(N2CC[C@H](O)[C@@H](N3CCC[C@@H](Nc4cc(Cl)cc(Cl)c4)C3=O)C2)c1F [compound 326, trans (3R)-1′-(6-Amino-5-fluoropyrimidin-4-yl)-3-(3,5-dichlorophenylamino)-4′-hydroxy-1,3′-bipiperidin-2-one] | < 100 nM |  |
| O=C(Nc1cccc(C2CCCN(c3ncnc4[nH]ccc34)C2)c1)Nc1ccccc1N1CC[C@@H](O)C1 (stereo partly shown) [compound 149] | < 100 nM |  |
| O=C(Nc1cccc(C2CCCN(c3ncnc4[nH]ccc34)C2)c1)c1cccnc1 (stereo not shown) [compound 12, N-(3-(1-(7H-pyrrolo[2,3-d]pyrimidin-4-yl)piperidin-3-yl)phenyl)nicotinamide] | > 10000 nM |  |
| O=C(Nc1cccc(C2CCCN(c3ncnc4[nH]ccc34)C2)c1)Nc1cccnc1O (stereo not shown) [compound 198] |  | 1000 to 10000 nM |
| O=C(Nc1cccc(C2CCCN(c3ncnc4[nH]ccc34)C2)c1)Nc1cccc2cc[nH]c12 (stereo not shown) [compound 211] |  | 1000 to 10000 nM |
| CCOC(=O)c1ccccc1NC1CCCN([C@@H]2CCCN(c3ncnc(N)c3F)C2)C1=O (stereo partly drawn) [compound 295, Ethyl-2-((3′R)-1′-(6-amino-5-fluoropyrimidin-4-yl)-2-oxo-1,3′-bipiperidin-3-ylamino) benzoate] | > 10000 nM |  |
| O=C1[C@@H](Nc2ccccc2)CCN1[C@@H]1CCCN(c2ncnc3[nH]ccc23)C1 [compound 272] |  | 1000 to 10000 nM |
| CC(=O)NCc1ccccc1NC(=O)Nc1cccc(C2CCCN(c3ncnc4[nH]ccc34)C2)c1 (stereo not shown) [Cmpd 62, N-(2-(3-(3-(1-(7H-pyrrolo[2,3-d]pyrimidin-4-yl)piperidin-3-yl)phenyl)ureido)benzyl)acetamide] |  | 1000 to 10000 nM |

| SMILES | IC50 [1] | IC50 |
| --- | --- | --- |
| N#Cc1cnc2[nH]ccc2c1N1CCC[C@@H](N2CCCC(Nc3cc(F)cc(Cl)c3)C2=O)C1 (stereo partly drawn) [compound 285, 4-((3′R)-3-(3-Chloro-5-fluorophenylamino)-2-oxo-1,3′-bipiperidin-1′-yl)-1H-pyrrolo[2,3-b]pyridine-5-carbonitrile] | < 100 nM |  |
| CC1(C)[C@@H]2CCC(CNC(=O)Nc3cccc(C4CCCN(c5ncnc6[nH]ccc56)C4)c3)[C@H]1C2 (stereo partly shown) [compound 258] | > 10000 nM |  |
| O=C(Nc1cccc(C2CCCN(c3ncnc4[nH]ccc34)C2)c1)Nc1ccccc1N1CCOCC1 (stereo not shown) [compound 165] |  | 100 to 999 nM |
| O=C(Nc1cc(C2CCCN(c3ncnc4[nH]ccc34)C2)ccc1OC(F)(F)F)c1ccccc1Cl (stereo not shown) [Cmpd 86, N-(5-(1-(7H-pyrrolo[2,3-d]pyrimidin-4-yl)piperidin-3-yl)-2-(trifluoromethoxy)phenyl)-2-chlorobenzamide] |  | 100 to 999 nM |
| O=C(CNc1ccccc1)Nc1cccc(C2CCCN(c3ncnc4[nH]ccc34)C2)c1 (stereo not shown) [Cmpd 17, N-(3-(1-(7H-pyrrolo[2,3-d]pyrimidin-4-yl)piperidin-3-yl)phenyl)-2-(phenylamino) acetamide] | > 10000 nM |  |
| Cc1cc(NC(=O)Nc2cccc(C3CCCN(c4ncnc5[nH]ccc45)C3)c2)no1 (stereo not shown) [Cmpd 57, 1-(3-(1-(7H-pyrrolo[2,3-d]pyrimidin-4-yl)piperidin-3-yl)phenyl)-3-(5-methylisoxazol-3-yl)urea] |  | 1000 to 10000 nM |
| CCC(CC)CNC(=O)Nc1cccc(C2CCCN(c3ncnc4[nH]ccc34)C2)c1 (stereo not shown) [compound 180] |  | 100 to 999 nM |
| Nc1ncnc(N2CCC(F)C(N3CCCC(Nc4cc(F)cc(Cl)c4)C3=O)C2)c1F (stereo not shown) [compound 340, 1′-(6-Amino-5-fluoropyrimidin-4-yl)-3-(3-chloro-5-fluorophenylamino)-4′-fluoro-1,3′-bipiperidin-2-one] |  | 100 to 999 nM |
| O=C(Nc1ccc(F)cc1)Nc1cccc(C2CCCN(c3ncnc4[nH]ccc34)C2)c1 (stereo not shown) [compound 185] |  | 1000 to 10000 nM |
| O=C(Nc1cccc(C2CCCN(c3ncnc4[nH]ccc34)C2)c1)c1ccccn1 (stereo not shown) [compound 13, N-(3-(1-(7H-pyrrolo[2,3-d]pyrimidin-4-yl)piperidin-3-yl)phenyl)picolinamide] | > 10000 nM |  |
| O=C(Nc1ccccc1)Nc1ccc(C2CCCN(c3ncnc4[nH]ccc34)C2)cc1 (stereo not shown) [compound 268] | > 10000 nM |  |
| O=C(NCC1(O)CCCCC1)Nc1cccc(C2CCCN(c3ncnc4[nH]ccc34)C2)c1 (stereo not shown) [compound 184] |  | 1000 to 10000 nM |
| O=C(Nc1cccc(C2CCCN(c3ncnc4[nH]ccc34)C2)c1)Nc1c(F)cc(F)cc1N1CCCC1 (stereo not shown) [Cmpd 49, 1-(3-(1-(7H-pyrrolo[2,3-d]pyrimidin-4-yl)piperidin-3-yl)phenyl)-3-(2,4-difluoro-6-(pyrrolidin-1-yl)phenyl)urea] |  | < 100 nM |
| Nc1ncnc(N2CCC[C@@H](N3CCCC(Nc4cc(Cl)c(F)c(Cl)c4)C3=O)C2)c1F (stereo partly drawn) [compound 309, (3′R)-1′-(6-Amino-5-fluoropyrimidin-4-yl)-3-(3,5-dichloro-4-fluorophenylamino)-1,3′-bipiperidin-2-one] | < 100 nM |  |
| CCOC(=O)c1cccc(NC2CCCN([C@@H]3CCCN(c4ncnc(N)c4F)C3)C2=O)c1 (stereo partly drawn) [compound 296, Ethyl 3-((3′R)-1′-(6-amino-5-fluoropyrimidin-4-yl)-2-oxo-1,3′-bipiperidin-3-ylamino) benzoate] |  | 1000 to 10000 nM |
| O=C(Nc1cccc(C2CCCN(c3ncnc4[nH]ccc34)C2)c1)Nc1ccccc1OC(F)F (stereo not shown) [compound 191] |  | 1000 to 10000 nM |
| Nc1ncnc(N2CCC[C@@H](N3CCCC(Nc4cccc(C(=O)O)c4)C3=O)C2)c1F (stereo partly drawn) [compound 299, 3-((3′R)-1′-(6-Amino-5-fluoropyrimidin-4-yl)-2-oxo-1,3′-bipiperidin-3-ylamino)benzoic acid] | > 10000 nM |  |
| CC(C)(C)CNC(=O)Nc1cccc(C2CCCN(c3ncnc4[nH]ccc34)C2)c1 (stereo not shown) [compound 196] |  | 1000 to 10000 nM |
| O=C(Nc1cccc(C2CCCN(c3ncnc4[nH]ccc34)C2)c1)Nc1cccnc1Cl (stereo not shown) [compound 202] |  | 1000 to 10000 nM |
| O=C(Nc1cccc(C2CN(c3ncnc4[nH]ccc34)CCN2CCO)c1)Nc1ccccc1N1CCCC1 (stereo not shown) [compound 124, 1-(3-(1-(2-hydroxyethyl)-4-(7H-pyrrolo[2,3-d]pyrimidin-4-yl)piperazin-2-yl)phenyl)-3-(2-(pyrrolidin-1-yl)phenyl)urea] |  | 100 to 999 nM |
| CC(=O)Nc1cc(N2CCCC(c3cccc(NC(=O)Nc4ccccc4)c3)C2)ncn1 (stereo not shown) [Cmpd 92, N-(6-(3-(3-(3-phenylureido)phenyl)piperidin-1-yl)pyrimidin-4-yl)acetamide] | > 10000 nM |  |
| N#C/N=C(\Nc1cccc(C2CCCN(c3ncnc4[nH]ccc34)C2)c1)NC1CCCCC1 (stereo not shown) [Cmpd 75] |  | 1000 to 10000 nM |
| CC(C)NC(=O)Nc1cccc(C2CCCN(c3ncnc4[nH]ccc34)C2)c1 (stereo not shown) [compound 241] | > 10000 nM |  |
| O=C(Nc1cccc(C2CCCN(c3ncnc4[nH]ccc34)C2)c1)Nc1ccccc1N1CCC[C@H]1CO (stereo partly shown) [compound 152] | < 100 nM |  |

Reference: patent US9790229B2, “Bruton's tyrosine kinase inhibitors” (priority 2009, dated 2017)
